# Patent publication US20170081383A1, “MELANOCORTIN ANALOGS HAVING ENHANCED ACTIVITY AND TRANSPORT” (Tensive Controls Inc., priority 2012, published 2017)
# “Also recorded” adds a separate entry of the source. Positions of bridges follow the written chain, without caps; N, C: chain ends. Non-standard residues stand in square brackets, D forms with d. Residues, ends and D or L forms follow the SMILES beside them. No end group written: not given here. β2Val = β2-Val (beta2-Val), beta-amino acid; d2Nal = N[C@H](Cc1ccc2ccccc2c1)C(=O)O; β3hV = CC(C)[C@H](N)CC(=O)O; β3hP = O=C(O)C[C@@H]1CCCN1; Nle = CCCC[C@H](N)C(=O)O
# Columns and labels:
# [1] = system: urethane-anesthetized rats; assay: Cardiovascular activity of melanocortin peptides (MAP, heart rate, ECG); conditions: for Duration / Peak Heart Rate Response (BPM) / Peak MAP Response (Δ mm Hg): n = 5; for cardiovascular and behavioral side effects (in words): rats
# Protocol: These studies were performed in urethane-anesthetized rats, since anesthesia is required for six-lead ECG monitoring. […] Initial selection of doses was guided by FDA exploratory IND studies with a recommendation for at least a 100-fold excess of the human dose.
# [2] = system: LPS-induced cachexia in rats; assay: Lipopolysaccharide (LPS)-induced cachexia assay; type: in vivo, rat; conditions: for blood-brain barrier transport (concluded from peripheral vs ICV activity) / anti-cachectic activity after ICV (IVt) administration (in words): LPS model; for anti-cachectic activity after ICV (IVt) administration (in words): intracerebroventricular administration; for peripheral (IP) anti-cachexia activity, feeding (in words): peripheral / intraperitoneal administration after LPS
# Protocol: The LPS model uses rats were maintained on a 12 h light/dark schedule with ad libitum access to food and water. Animals were handled daily for a minimum of three consecutive days to decrease non-specific handling stress. On the day of the experiment, individually housed animals received intraperitoneal injections of LPS dissolved in 0.5% low-endotoxin BSA, 0.9% saline or 0.5% BSA in 0.9% saline alone, and were returned to their home cage. The drug or control was administered (ICV, IP, or PO, depending on the type of study) 1-hour after LPS injection.
# In the experiments described herein, a series of melanocortin receptor antagonist peptides were examined in a bacterial endotoxin inducing cachexia assay. For this assay, a rat is challenged with a single peripheral injection of lipopolysaccharide (LPS). LPS is a heat-stable lipo-polysaccharide, the major component of the outer membrane (capsule) of gram negative bacteria. In non-capsulated strains, it appears as a cell surface […]. LPS produces a strong immune response, including secretion of the proinflammatory cytokines Tumor Necrosis Factor α (TNFα) and interleukin-1 (IL-1). Proinflammatory cytokines are known factors that induce cachexia.
# Rats are maintained on a 12-hour light/dark cycle. Animals are handled daily for a minimum of 5 consecutive days to acclimate them to the handling required for the experiment. […] On the day of the experiment, individually housed animals receive intraperitoneal (IP) injections of LPS dissolved in 0.5% low-endotoxin BSA, 0.9% saline or 0.5% BSA in 0.9% saline alone, and returned in their home cage. Melanocortin receptor antagonist peptides were administered (IP or by gavage, depending on the type of study) one hour after the LPS injection. The extent of cachexia is measured by the reduction in food intake, measured every two hours. The cachexia typically lasts only a single day. However, rats lose up to 5% of their body weight during a 12-hour light cycle, making up this loss plus food needed for normal growth during the 12-hour dark cycle. Thus, failure to eat appropriately during a single dark cycle is determinable from the animal's weight and any changes thereof.
# A series of melanocortin receptor antagonist peptides were examined in a bacterial toxin inducing cachexia assay. In this assay, a rat was challenged with a single peripheral injection of lipopolysaccharide (LPS), a bacterial toxin that rapidly induces acute cachexia. The extent of cachexia was measured as a reduction in food intake, measured every two hours. The cachexia typically lasts only a single day.
# [3] = system: Lewis sarcoma rat model; assay: Lewis sarcoma rat model of cancer cachexia; type: in vivo
# Protocol: This sarcoma is an aggressive form of cancer that produces significant cachexia. Popp et al., Cancer 49(6): 1212-1220 (1982). In the protocol, “treatment” began 8-days after tumor implantation, with a significant decrease in food intake from baseline. Body composition was determined by NMR prior to tumor implantation, and on the final day of the experiment after tumor resection, by ECHO MRI (NMR). Tumor implantation produces cachexia on or about the 6th day. Melanocortin drug therapy or saline was begun after day 8 and continued through day 12.
# Prior to tumor implantation, both groups (drug or saline) had similar food intake (˜14 g/day). See FIGS. 2A and B. After tumor implantation, in saline-treated/tumor bearing controls, food intake decreased 35% to 9 g/day by day 8. FIGS. 3A-F. However, treatment with TCMCB01 reversed anorexia to a food intake similar to the control state.
compound,measurement,setting,value
"CCCC[C@H](NC(C)=O)C(=O)N[C@H]1CC(=O)NCCCC[C@@H](C(=O)O)NC(=O)[C@H](Cc2c[nH]c3ccccc23)NC(=O)[C@H](CCCN=C(N)N)NC(=O)[C@@H](Cc2ccccc2)NC(=O)[C@H](Cc2cnc[nH]2)NC1=O [PT-141, Ac-Nle-c[Asp-His-D-Phe-Arg-Trp-Lys]-COOH]",Duration,[1]; 250 nmol,140 ± 53 min
same,Peak Heart Rate Response (BPM),[1]; 250 nmol,44 ± 6 BPM
same,Peak MAP Response (Δ mm Hg),[1]; 250 nmol,32 ± 6 mm Hg
same,lethality,"[1]; 900 nmol/kg IV, FIG. 1C",lethal dose
same,MAP reached after dosing,"[1]; 900 nmol/kg IV, baseline MAP 80 mmHg, then precipitously falling",140 mmHg
same,heart rate course after dosing,"[1]; 900 nmol/kg IV, baseline heart rate 312",progressively fell
same,ECG tracing (lead 2) finding,"[1]; IV 600 nmol/kg, FIG. 1A-B",inverted P-wave
"CCCC[C@H](NC(C)=O)C(=O)N[C@H]1CC(=O)NCCCC[C@@H](C(=O)N2CCC[C@@H]2C(=O)N[C@@H](C(N)=O)C(C)C)NC(=O)[C@H](Cc2c[nH]c3ccccc23)NC(=O)[C@H](CCCNC(=N)N)NC(=O)[C@@H](Cc2ccc3ccccc3c2)NC(=O)[C@@H]2CCCN2C1=O [TCMCB02, Ac-Nle-c[Asp-Pro-D-Nal(2′)-Arg-Trp-Lys]-D-Pro-D-Val-NH2] (Ac-[Nle]DP[d2Nal]RWK[dP][dV]-NH2; lactam 2-7 (inferred))",blood-brain barrier transport (concluded from peripheral vs ICV activity),[2],only has blood-brain barrier transport
same,cardiovascular and behavioral side effects (in words),[1],no cardiovascular or dose-limiting behavioral side effects
Ac-Nle-c[Asp-His-D-Nal(2′)-Arg-Trp-Lys]-D-Pro-D-Val-NH2 (Ac-[Nle]DH[d2Nal]RWK[dP][dV]-NH2; lactam 2-7; SMILES CCCC[C@H](NC(C)=O)C(=O)N[C@H]1CC(=O)NCCCC[C@@H](C(=O)N2CCC[C@@H]2C(=O)N[C@@H](C(N)=O)C(C)C)NC(=O)[C@H](Cc2c[nH]c3ccccc23)NC(=O)[C@H](CCCNC(=N)N)NC(=O)[C@@H](Cc2ccc3ccccc3c2)NC(=O)[C@H](Cc2c[nH]cn2)NC1=O) [TCMCB03],blood-brain barrier transport (concluded from peripheral vs ICV activity),[2],failed to cross the blood brain barrier; also recorded: less blood-brain barrier transport activity
same,anti-cachectic activity after ICV (IVt) administration (in words),[2],enhanced anti-cachexia; also recorded: superior anti-cachexia activity following ICV administration
same,"peripheral (IP) anti-cachexia activity, feeding (in words)",[2],did not possess as good peripheral
Ac-Nle-c[Asp-His-D-Nal(2′)-Arg-Trp-Lys]-NH2 [SHU9119],Peak Heart Rate Response (BPM),[1]; 250 nmol,3 ± 14 BPM
same,Peak MAP Response (Δ mm Hg),[1]; 250 nmol,16 ± 5 mm Hg
Ac-Nle-c[Asp-Pro-D-Nal(2′)-Arg-Trp-Lys]-D-Thr-D-Pro-D-Thr (Ac-[Nle]DP[d2Nal]RWK[dT][dP][dT]; lactam 2-7) [TCMCB01],reversal of cachexia-anorexia (food intake),"[3]; ICV, one time per day, 2 nmol, after day 8 through day 12",reversed the cachexia-anorexia of the tumor burden
same,dose producing the feeding effect relative to that used with previous synthetic melanocortin antagonists,[3]; Lewis model,one tenth
same,body weight after tumor implantation,"[3]; drug treated group vs saline controls, FIG. 4",significantly greater than saline controls
same,tumor weight,"[3]; equivalent in saline-treated and drug-treated group (p=0.2), FIG. 5",~40 g
same,anti-cachectic response compared with AGRP and SHU9119,"[3]; food intake, Lewis sarcoma rats, FIG. 3","as potent as the natural melanocortin system inhibitor Agouti Related Protein (AGRP), and significantly more potent than SHU9119; also recorded: equivalent to AGRP"
same,anti-cachectic effect greater than AGRP,"[3]; related study (not shown), Lewis model",~20%
same,lean body mass (NMR after tumor excision),"[3]; statistical significance only p=0.05, FIG. 6",increased lean body mass
same,blood-brain barrier transport (concluded from peripheral vs ICV activity),[2],insufficient blood brain barrier-transport; also recorded: no blood-brain barrier transport
same,"anti-cachectic activity compared to the parent compound, PG932",[2]; Lewis sarcoma rat model and LPS model,enhanced anti-cachectic activity
same,anti-cachectic activity after ICV (IVt) administration (in words),[2],only produced an anti-cachexia effect when given by IVt administration
same,"peripheral (IP) anti-cachexia activity, feeding (in words)",[2],did not have peripheral activity
same,Duration,[1]; 600 nmol,0 min
same,Peak Heart Rate Response (BPM),[1]; 600 nmol,0/0 BPM
same,Peak MAP Response (Δ mm Hg),[1]; 600 nmol,0/0 mm Hg
same,cardiovascular and behavioral side effects (in words),[1],no cardiovascular or dose-limiting behavioral side effects; also recorded: little cardiovascular activity
Ac-Nle-c[Asp-Pro-D-Nal(2′)-Arg-Trp-Lys]-D-Val-D-Pro-OH (Ac-[Nle]DP[d2Nal]RWK[dV][dP]-OH; lactam 2-7) [TCMCB07A],"peripheral (IP) anti-cachexia activity, feeding (in words)",[2],equivalent stimulation of feeding
Ac-Nle-c[Asp-Pro-D-Nal(2′)-Arg-Trp-Lys]-β^2-Val-β^3-Pro-NH2 (Ac-[Nle]DP[d2Nal]RWK[β2Val][β3hP]-NH2; lactam 2-7) [TCMCB08],blood-brain barrier transport (concluded from peripheral vs ICV activity),[2],good blood-brain barrier transport
same,oral activity / gastrointestinal transport (in words),"[2]; gavage (intra-gastric) administration, LPS cachexia",not as much oral activity as TCMCB07; also recorded: no gastrointestinal transport
same,"peripheral (IP) anti-cachexia activity, feeding (in words)",[2],has peripheral activity
Ac-Nle-c[Asp-Pro-D-Nal(2′)-Arg-Trp-Lys]-β^3-Pro-β^3-Pro-NH2 (Ac-[Nle]DP[d2Nal]RWK[β3hP][β3hP]-NH2; lactam 2-7; SMILES CCCC[C@H](NC(C)=O)C(=O)N[C@H]1CC(=O)NCCCC[C@@H](C(=O)N2CCC[C@H]2CC(=O)N2CCC[C@H]2CC(N)=O)NC(=O)[C@H](Cc2c[nH]c3ccccc23)NC(=O)[C@H](CCCNC(=N)N)NC(=O)[C@@H](Cc2ccc3ccccc3c2)NC(=O)[C@@H]2CCCN2C1=O) [TCMCB10],blood-brain barrier transport (concluded from peripheral vs ICV activity),[2],failure to cross the blood-brain barrier
same,anti-cachectic activity after ICV (IVt) administration (in words),[2],maintaining direct inhibitory effects
same,"peripheral (IP) anti-cachexia activity, feeding (in words)",[2],no peripheral activity
Ac-Nle-c[Asp-Pro-D-Nal(2′)-Arg-Trp-Lys]-β^3-Pro-β^3-Val-NH2 (Ac-[Nle]DP[d2Nal]RWK[β3hP][β3hV]-NH2; lactam 2-7) [TCMCB06],"food intake, 24 hours after LPS challenge","[2]; 0.2 mg/kg intraperitoneally, FIG. 8A",ate significantly less food than the other drug candidates
same,"body weight (percent of pre-LPS baseline), 24 hours after LPS challenge","[2]; 0.2 mg/kg intraperitoneally, FIG. 8B",no weight gain
same,molar activity relative to TCMCB02,"[2]; ICV administration, LPS-induced cachexia",10 fold
same,anti-cachectic activity after ICV (IVt) administration (in words),[2],molar activity equivalent to TCMCB02
same,"peripheral (IP) anti-cachexia activity, feeding (in words)",[2],only TCMCB05 (β^3-Pro-β^2-Val) had IP anti-cachexia activity; also recorded: only TCMCB05 had peripheral anti-cachexia activity
Ac-Nle-c[Asp-Pro-D-Nal(2′)-Arg-Trp-Lys]-β^3-Val-β^3-Pro-NH2 (Ac-[Nle]DP[d2Nal]RWK[β3hV][β3hP]-NH2; lactam 2-7) [TCMCB09],"peripheral (IP) anti-cachexia activity, feeding (in words)",[2],inactive peripherally
Ac-Nle-c[D-Asp-Pro-D-Nal(2′)-Arg-Trp-D-Lys]-D-Pro-D-Val-NH2 (Ac-[Nle][dD]P[d2Nal]RW[dK][dP][dV]-NH2; lactam 2-7) [TCMCB04],blood-brain barrier transport (concluded from peripheral vs ICV activity),[2],eliminated blood brain barrier transport; also recorded: no transport across the blood-brain barrier
same,anti-cachectic activity after ICV (IVt) administration (in words),[2],superior anti-cachectic activity compared to the parent compound
same,"peripheral (IP) anti-cachexia activity, feeding (in words)",[2],No difference was observed between the peptide and saline
Ac-Ser-Tyr-Nle-Glu-His-D-Phe-Arg-Trp-Gly-Lys-Pro-Val-NH2 [MT-I],Duration,[1]; 250 nmol,0 min
same,Peak Heart Rate Response (BPM),[1]; 250 nmol,0/0 BPM
same,Peak MAP Response (Δ mm Hg),[1]; 250 nmol,0/0 mm Hg
